Data reported in PubChem BioAssay (NCI).
Several values for one entry are separate records, joined by “and”; a condition that tells them apart may be missing. Equal values may be shown once.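 Where inhibition never reached the appropriate level, the endpoint shown equals the highest concentration tested. Otherwise, values were interpolated linearly from a five-concentration, 48-hour dose response in 96-well plates. At the GI50, growth is halved. TGI: concentration producing complete growth inhibition.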 Where a SMILES comes first, the peptide text is derived from it. The star is where a group is joined. Boc = CC(C)(C)OC(=O)*; OSu = O=C1CCC(=O)N1O*

Columns and labels:
Assay in all cases: inhibition of tumour cell growth, NCI panel, 48 h
MDA-MB-231 breast = system: MDA-MB-231 breast
SK-OV-3 ovarian = system: SK-OV-3 ovarian
NCI-H23 lung = system: NCI-H23 lung
HOP-62 NSCLC = system: HOP-62 NSCLC
K-562 leukemia = system: K-562 leukemia
CCRF-CEM leukemia = system: CCRF-CEM leukemia
MCF7 breast = system: MCF7 breast
A549 NSCLC = system: A549 NSCLC
SNB-75 CNS = system: SNB-75 CNS
HCT-116 colon = system: HCT-116 colon
ACHN renal = system: ACHN renal
OVCAR-5 ovarian = system: OVCAR-5 ovarian

Row | SMILES | TGI (MDA-MB-231 breast) [µM] | TGI (SK-OV-3 ovarian) [µM] | TGI (NCI-H23 lung) [µM] | TGI (HOP-62 NSCLC) [µM] | TGI (K-562 leukemia) [µM] | TGI (CCRF-CEM leukemia) [µM] | TGI (MCF7 breast) [µM] | TGI (A549 NSCLC) [µM] | TGI (SNB-75 CNS) [µM] | TGI (HCT-116 colon) [µM] | TGI (ACHN renal) [µM] | TGI (OVCAR-5 ovarian) [µM] | GI50 (MCF7 breast)
1 | c1ccc(C[P+]2(c3ccccc3)c3ccccc3-c3ccccc32)cc1 | > 100 | > 100 | > 100 | > 100 | > 100 | > 100 | > 100 | > 100 | > 100 | > 100 | – | – | –
2 | O=c1c2ccccc2[nH]c(=S)n1-c1ccc(N=Nc2cccc3c(O)cccc23)cc1 | > 100 | > 100 | > 100 | > 100 | > 100 | > 100 | 35.2 | > 100 | > 100 | > 100 | > 100 | > 100 | –
3 | Nc1nc(Cl)cc(NCC2(CO)CC(CCc3ccccc3)C2)n1 (centres undefined) | > 100 | > 100 | > 100 | > 100 | > 100 | > 100 | > 100 | > 100 | > 90.2 | > 100 | > 100 | > 100 | –
4 | CCCCc1c(O)nc(Nc2nc3ccccc3[nH]2)[nH]c1=O | > 100 | > 100 | > 100 | > 100 | > 100 | > 100 | > 100 | > 100 | > 100 | > 100 | > 100 | > 100 | –
5 | CO[C@@H](C(=O)OC1C=CC2(CC1)C(=O)N(C)c1ccccc12)c1ccccc1 (some centres undefined) | > 100 | > 100 | > 100 | > 100 | > 100 | > 100 | > 100 | > 100 | > 100 | > 100 | > 100 | > 100 | –
6 | N#C/C(=C\NC(=S)Nc1ccc(S(=O)(=O)Nc2ccccn2)cc1)C(N)=O | > 100 | > 100 | > 100 | > 100 | > 100 | > 100 | > 100 | > 100 | > 100 | > 100 | > 100 | > 100 | –
7 | O=C1CC(c2ccco2)C2(C(=O)NC(=O)NC2=O)C(c2ccco2)C1 (centres undefined) | > 75 | > 75 | > 75 | > 75 | > 75 | > 75 | > 75 | > 75 | > 75 | > 75 | > 75 | > 75 | –
8 | COc1cc2oc(-c3ccc(O)cc3)c(OC3OC(C)C(O)C(O)C3O)c(=O)c2c(O)c1OC (centres undefined) | > 100 | > 100 | > 100 | > 100 | > 100 | > 100 | > 100 | > 100 | > 100 | > 100 | > 100 | > 100 | –
9 | O=c1oc2ccccc2c(O)c1C(c1cc(OCc2ccccc2)cc(OCc2ccccc2)c1)c1c(O)c2ccccc2oc1=O | 34.5 | 20.1 | 23.1 | 37 | > 25.4 | > 22.5 | 48.5 | > 56.4 | 17 | 17.5 | 7.99 | 34.5 | –
10 | O=c1c2c3ccccc3[nH]c2c2cccc3c2n1CCC3 | > 100 | > 100 | > 100 | > 100 | > 100 | > 100 | > 100 | > 100 | > 100 | > 100 | > 100 | > 100 | –
11 | CC(=O)NC1C(OCc2ccccc2)OC(CO)C(O)C1OCC(=O)N[C@@H](C)C(=O)N[C@H](CCC(=O)NCCNCCNc1c2ccccc2nc2cccc([N+](=O)[O-])c12)C(N)=O (some centres undefined) | > 100 | > 100 | 35.3 | > 100 | > 100 | > 100 | > 100 | > 100 | > 100 | 54.8 | 79.6 | > 100 | –
12 | CC(C)(C)C(=O)C(CC(=O)c1ccccc1)C(=O)C(C)(C)C | > 100 | > 100 | > 100 | > 100 | > 100 | > 100 | > 100 | > 100 | > 100 | > 100 | > 100 | > 100 | –
13 | Cc1ccc(N=Nc2c3c(c(O)c4ccccc24)CCC(C)(C)O3)cc1 | > 100 | > 100 | 28.6 | 36.6 | > 100 | 39.6 | 27.2 | 31.8 | 36 | 49.2 | 62.1 | 34.8 | –
14 | C=CC(=O)c1ccc2c(c1)OCCOCCOCCOCCOCCO2 | 36 | > 100 | > 64.2 | > 100 | > 100 | > 100 | 32.4 | > 100 | > 91.6 | > 56.2 | 31.9 | > 100 | –
15 | COc1ccc(N2C(=O)C3c4[nH]c5ccc([N+](=O)[O-])cc5c4C4CCC(C(C)(C)C)CC4C3C2=O)cc1 (centres undefined) | 36.5 | > 100 | 60.4 | 78.8 | 7.33 | > 100 | > 100 | > 100 | > 100 | 23.9 | 63.6 | > 100 | –
16 | CCOP(=O)(OCC)[C@H](O)c1ccsc1 | > 100 | > 100 | > 100 | > 100 | > 100 | > 100 | > 100 | > 100 | > 100 | > 100 | > 100 | > 100 | –
17 | COc1ccc(-c2c(C#N)c(N)n(C3OC(CO)C(O)C(O)C3O)c(=S)c2C#N)cc1 (centres undefined) | > 100 | > 100 | > 100 | > 100 | > 100 | > 100 | > 100 | > 100 | > 100 | > 100 | > 100 | > 100 | > 100 µM and 38.4 µM
18 | CC(C)(C)OC(=O)NC(Cc1ccc(O)cc1)C(=O)NC(CCCCN)C(=O)NC(Cc1ccc(O)cc1)C(=O)NC(CCCCN)C(=O)ON1C(=O)CCC1=O (centres undefined) (Boc-YKYK-OSu; configuration not given here) | > 100 | – | > 100 | > 100 | > 100 | > 100 | > 100 | > 100 | > 100 | > 100 | > 100 | > 100 | –
